The values below are quoted from earlier work in US11304898B2, “Method of treating carcinoma” (SUN PHARMA ADVANCED RESEARCH COMPANY LTD, priority 2015, dated 2022).

Series [1] concerns bile tract cancer. Conditions: Phase II studies, bile tract cancer patients.
In series [2] the test system is bile tract cancer. Conditions: EORTC study.

In the case of `O=c1[nH]cc(F)c(=O)[nH]1` [Example 5-FU, 5-Fluorouracil], in the series with bile tract cancer [1], the achieved response rate result is reported as “less than 20%”.
With `CO[C@@]12[C@H](COC(N)=O)C3=C(C(=O)C(C)=C(N)C3=O)N1C[C@@H]1N[C@@H]12` [Mit-C, mitomycin-C], in the series on bile tract cancer [2], the objective response rate is listed as 10%.
